Key:
Type in all cases: in vivo, rat
[1] = tested on: control, uninjured animals; experiment: Thermal withdrawal latency in control, uninjured animals after intrathecal injection; conditions: uninjured rats
Protocol: (§1) Thermal sensitivity is assessed using the hindpaw withdrawal test to a thermal noxious stimulus. An animal was placed inside a plastic box on a raised glass surface. The animal is free to move within the confines of the box. A movable, focused beam of radiant heat was placed under the glass on which the animal is resting a paw. The glass is progressively heated until a noxious threshold was reached to elicit paw withdrawal. As soon as the animal moved its paw, a photocell in the metal enclosure containing the heat source turned off the light. The latency (in sec) for the animal to withdraw its paw was recorded by a digital automatic display.
(§2) For both behaviors, the ipsilateral, injured, paw was tested four times to obtain an average value. Each test is separated by 5 min. Persons performing behavioral tests are blinded to treatment whenever possible.
(§3) The animals were anesthetized with isoflurane and securely held in the sternal position. A 25 μl Hamilton-brand microsyringe was fitted with a 25-gauge, 1-inch hypodermic needle and the needle inserted between the dorsal aspects of L5 and L6 perpendicular to the vertebral column. This site corresponds to the region where the spinal cord ends and the cauda equina begins and was chosen to reduce the possibility of spinal damage. The needle was advanced until a slight but noticeable movement of the tail or the leg was observed. […]

[2] = tested on: control, uninjured animals; experiment: Mechanical withdrawal threshold in control, uninjured animals after intrathecal injection; conditions: uninjured rats
Description: (§4) An automated instrument was used for assessing touch sensitivity. An animal was placed inside a plastic box on a raised plasticized wire-mesh surface. The animal is free to move within the confines of the box. The animal acclimates to the apparatus, and a touch stimulator unit was then slid under the animal to position a stainless steel filament (0.5 mm diameter) under the plantar surface of a paw. A button press causes the filament to move perpendicularly to the tested paw. The filament exerts an increasing force, starting below the threshold of detection and increases until the animal withdraws the paw. The force applied to the filament that results in paw withdrawal was recorded.
as §2
as §3, with “damage.” for “damage. The needle was advanced until a slight but noticeable movement of the tail or the leg was observed.”

[3] = tested on: calcineurin; experiment: Calcineurin activity in the PSD after intrathecal injection (commercial kit); conditions: control, uninjured rats; 90 minutes after intrathecal injection; vs saline; FIG. 16
Protocol: (§5) Animals were anesthetized with isoflurane and while still deeply anesthetized were euthanized with an intracardiac injection of super-saturated potassium chloride (>350 mg/ml). A laminectomy was used to rapidly (<2 min) expose the lumbar spinal cord at L5. About 1 cm of the cord was excised and placed into a Petri dish containing dry-ice-cold saline or homogenizing buffer. Subsequently, the cord was cut under a dissecting microscope into dorsal and ventral halves, and the dorsal half further divided into ipsilateral and contralateral quadrants. All tissues were immediately placed into dry-ice cooled collecting tubes, and stored at −80° C. until used.
(§6) Calcineurin activity was obtained with a commercial kit (Enzo Life Sciences, Plymouth Meeting, Pa.) and expressed as nmol of phosphate released/min/mg of protein. Immunoblots were performed as described previously (Miletic et al., 2002). Calcineurin isoform […] (Millipore, Billerica, Mass.) was used at a dilution of 1:1000. Developed membranes were stripped and re-probed with beta III tubulin (1:1000; Promega, Madison, Wis.) as the loading control. Protein levels were estimated with the BioSpectrum 500 Image Analysis System (UVP, Upland, Calif.). The calcineurin Aα content within a gel was expressed over the beta III tubulin content, and then the content in sham-operated or CCI animals was normalized to those in control animals. […]

[4] = tested on: CCI animals (chronic constriction injury of the sciatic nerve); experiment: Thermal withdrawal latency in CCI animals after intrathecal injection; conditions: for analgesia, thermal latency threshold: group data, 100 units intrathecal, FIG. 13
Protocol: as §1, §2
(§7) Animals were anesthetized with isoflurane and prepared for surgery by clipping the hair over the mid-thigh area of the left hind leg, scrubbing the clipped area with povidone iodine and alcohol (repeated three times), and lubricating the eyes with sterile ophthalmic ointment. The sciatic nerve was exposed at mid-thigh level by blunt dissection through the biceps femoris muscles. The nerve was freed of adherent tissue, and four ligatures (4.0 chromic gut) were spaced about 1 mm apart. Care was taken to tie the ligatures so that the nerve trunk is just barely constricted when viewed with a dissecting microscope at 40×. […] The incision was closed in layers using chromic gut sutures for muscle and silk sutures for skin.
(§8) A stock solution of calcineurin enzyme at a concentration of 100 units/microliter is commercially available (Enzo Life Sciences, Plymouth Meeting, Pa., Cat. No. BML-SE163-5000). The stock solution was diluted 1:10 with saline (1 part of calcineurin stock solution+9 parts of saline) to make a diluted calcineurin solution of 10 units/microliter. Ten microliters of the diluted calcineurin solution was then injected intrathecally. In other words the dose is 100 units of calcineurin per animal. Animal weights were approximately 200 to 250 g. This equates to a dosage of roughly 3 μg/kg body weight (in the rat).
(§9) The animals were anesthetized with isoflurane and securely held in the sternal position. A 25 μl Hamilton-brand microsyringe was fitted with a 25-gauge, 1-inch hypodermic needle and the needle inserted between the dorsal aspects of L5 and L6 perpendicular to the vertebral column. This site corresponds to the region where the spinal cord ends and the cauda equina begins and was chosen to reduce the possibility of spinal damage. The needle was advanced until a slight but noticeable movement of the tail or the leg was observed. […] Drugs were injected in a volume of 10 μl and the syringe was held in place for a few seconds before being progressively and slowly withdrawn to avoid drug outflow. The rat then recovers from the anesthesia.

[5] = tested on: calcineurin Aα isoform; experiment: Immunoblot of calcineurin Aα content in the post-synaptic density of spinal dorsal horn neurons after intrathecal injection; conditions: CCI rats; 90 min after single intrathecal injection of 100 units; vs saline; FIG. 7
Protocol: as §5, §6

[6] = tested on: CCI animals (chronic constriction injury of the sciatic nerve); experiment: Mechanical withdrawal threshold in CCI animals after intrathecal injection; conditions: for analgesia, mechanical stimulus threshold: group data, FIG. 12
Description: as §4, §2, §7, §8, §9

## FK-506 [reference compound]
[1]; 90 minutes after intrathecal injection, vs saline, FIG. 15
  thermal latencies: significant decrease
[2]; 90 minutes after intrathecal injection, vs saline, FIG. 14
  mechanical withdrawal thresholds: significant decrease
[3]
  calcineurin activity in PSD: significant decrease

## calcineurin
[4]; CCI rats 7 days post-ligation, 100 units in 10 μl intrathecal, retested 90 min after injection, FIG. 6
  thermal hypersensitivity: significantly attenuated
[4]; CCI rats, 2-day post-injection group
  analgesia, thermal latency threshold: provided analgesia
[4]; CCI rats, 4-day post-injection group
  analgesia, thermal latency threshold: provided analgesia
[4]; CCI rats, 6-day post-injection group
  analgesia, thermal latency threshold: disappeared
[4]; CCI rats, single intrathecal injection 100 units, 2 days after injection, continuous, FIG. 9
  thermal hypersensitivity: significantly attenuated
[4]; CCI rats, single intrathecal injection 100 units, 4 days after injection, continuous, FIG. 9
  thermal hypersensitivity: continued to exhibit analgesia
[4]; CCI rats, single intrathecal injection 100 units, 6 days after injection, continuous, FIG. 9
  thermal hypersensitivity: exhibited once again mechanical and thermal hypersensitivity
[1]; single intrathecal injection, FIG. 11
  behavior, thermal stimulation: not modified
[2]; single intrathecal injection, FIG. 10
  behavior, mechanical stimulation: not modified
[5]
  calcineurin Act in ipsilateral PSD: significantly more
[6]; CCI rats 7 days post-ligation, 100 units in 10 μl intrathecal, retested 90 min after injection, FIG. 5
  mechanical hypersensitivity: significantly attenuated
[6]; CCI rats, 100 units intrathecal, mechanical and thermal tests
  duration of pain relief from a single intrathecal injection: ≥ 4 days
[6]; CCI rats, 2-day post-injection group, 100 units intrathecal
  analgesia, mechanical stimulus threshold: provided analgesia
[6]; CCI rats, 4-day post-injection group, 100 units intrathecal
  analgesia, mechanical stimulus threshold: provided analgesia
[6]; CCI rats, 6-day post-injection group, 100 units intrathecal
  analgesia, mechanical stimulus threshold: disappeared
[6]; CCI rats, single intrathecal injection 100 units, 2 days after injection, same animals retested (continuous), FIG. 8
  mechanical hypersensitivity: significantly attenuated
[6]; CCI rats, single intrathecal injection 100 units, 4 days after injection, continuous, FIG. 8
  mechanical hypersensitivity: continued to exhibit analgesia
[6]; CCI rats, single intrathecal injection 100 units, 6 days after injection, continuous, FIG. 8
  mechanical hypersensitivity: exhibited once again mechanical and thermal hypersensitivity
